In patent USRE47689E1, “Compounds for treating spinal muscular atrophy” (PTC Therapeutics, Inc., priority 2011, dated 2019):
Like-named read-outs stand apart in the source and are kept apart here.

What was measured:
[1] = test system: SMN2 minigene (full length SMN2 minigene mRNA containing SMN2 exon 7); test: SMN2 minigene mRNA splicing RT-qPCR assay in cultured cells; assay type: cell-based, human; conditions: Homo sapiens, HEK293-H, read-out: EC1.5x for production of full length SMN2 mRNA
How it was run: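 Read-out: full-length (exon 7-included) SMN2 minigene mRNA by multiplex RT-qPCR with GAPDH, efficiency-corrected (1+E)^−Ct, GAPDH-normalized and divided by vehicle. Stably transfected HEK293H cells, 24 h compound exposure, duplicates per concentration. Value is EC1.5x, reported as star ranges.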

[2] = test system: Smn protein; test: Smn protein assay in cultured cells (SMN HTRF); assay type: cell-based, human; conditions: 48 hours; for EC1.5x (concentration giving 1.5-fold Smn protein increase): SMA Type 1 patient fibroblast cells (GM03813), 7-point concentration curve, SMN HTRF, concentration producing 1.5 times Smn protein vs DMSO vehicle control, read-out: EC1.5x for Smn protein expression; for maximum fold (Fold) increase of Smn protein: SMA patient fibroblast cells, 7-point concentration data, fold increase relative to vehicle control (SMN HTRF)
How it was run: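 Lysates in RIPA with protease inhibitors are incubated overnight at room temperature with HTRF anti-SMN antibodies. EC1.5x is derived from fold increase in ΔF over vehicle.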

[3] = HEK293H cells stably transfected with SMN2-A minigene, 24 hours, 7-point concentration curve, 1.5-fold relative to vehicle-treated cells

Row | SMILES | EC (1.5-fold) [1, 3] | EC1.5x (concentration giving 1.5-fold Smn protein increase) [2] | maximum fold (Fold) increase of Smn protein [2] | EC (1.5-fold) ([1]; 24 h)
1 | Cc1nc(Cl)cn2cc(-c3cc4ccc(N5C[C@@H]6C[C@H]5CN6C)cc4oc3=O)nc12 [Compound 787, 3-(6-chloro-8-methylimidazo[1,2-a]pyrazin-2-yl)-7-[(1S,4S)-5-methyl-2,5-diazabicyclo[2.2.1]hept-2-yl]-2H-chromen-2-one] | < 0.1 µM | 300 to 1000 nM | *** (fold increase between >1.35 and ≤1.5) | –
2 | CN1CCN(c2ccc3cc(-c4ccnc(C5CC5)n4)c(=O)oc3c2)CC1 [Compound 298, 3-(2-cyclopropylpyrimidin-4-yl)-7-(4-methylpiperazin-1-yl)-2H-chromen-2-one] | 1 to 3 µM | – | * (maximum fold increase of ≤1.2) | –
3 | CCN1CCCN(c2ccc3cc(-c4cn5cc(C)ncc5n4)c(=O)oc3c2)CC1 [Compound 618, 7-(4-ethyl-1,4-diazepan-1-yl)-3-(6-methylimidazo[1,2-a]pyrazin-2-yl)-2H-chromen-2-one] | < 0.1 µM | < 300 nM | **** (fold increase between >1.5 and ≤1.65) | –
4 | Cc1cn2cc(-c3cc4ccc(N5CCN[C@@H](C)C5)cc4oc3=O)ccc2n1 [Compound 664, 3-(2-methylimidazo[1,2-a]pyridin-6-yl)-7-[(3S)-3-methylpiperazin-1-yl]-2H-chromen-2-one] | < 0.1 µM | < 300 nM | ***** (fold increase >1.65) | –
5 | O=c1oc2cc(N3CCNCC3)ccc2cc1-c1cc(C(F)(F)F)ccn1 [Compound 76, 7-(piperazin-1-yl)-3-[4-(trifluoromethyl)pyridin-2-yl]-2H-chromen-2-one] | 1 to 3 µM | – | * (maximum fold increase of ≤1.2) | –
6 | CCCN1CCN(c2ccc3cc(-c4cc5ccccn5n4)c(=O)oc3c2)CC1 [Compound 195, 7-(4-propylpiperazin-1-yl)-3-(pyrazolo[1,5-a]pyridin-2-yl)-2H-chromen-2-one] | 1 to 3 µM | – | * (maximum fold increase of ≤1.2) | –
7 | Cl.O=c1oc2cc(N3CCNCC3)ccc2cc1-c1ccnc(C2CC2)n1 [Compound 278, 3-(2-cyclopropylpyrimidin-4-yl)-7-(piperazin-1-yl)-2H-chromen-2-one hydrochloride] | 0.3 to 1 µM | – | * (maximum fold increase of ≤1.2) | –
8 | Cc1cn2cc(-c3cc4ccc(N5CCCN(C)CC5)cc4oc3=O)cc2c(C)n1 [Compound 681, 3-(1,3-dimethylpyrrolo[1,2-a]pyrazin-7-yl)-7-(4-methyl-1,4-diazepan-1-yl)-2H-chromen-2-one] | < 0.1 µM | < 300 nM | **** (fold increase between >1.5 and ≤1.65) | –
9 | Cc1csc(-c2cc3ccc(N4CCNCC4)cc3oc2=O)n1 [Compound 37, 3-(4-methyl-1,3-thiazol-2-yl)-7-(piperazin-1-yl)-2H-chromen-2-one] | – | – | ** (fold increase between >1.2 and ≤1.35) | 1 to 3 µM
10 | Cc1cn2cc(-c3cc4ccc(N5CCN[C@H](C)C5)cc4oc3=O)ccc2n1 [Compound 652, 3-(2-methylimidazo[1,2-a]pyridin-6-yl)-7-[(3R)-3-methylpiperazin-1-yl]-2H-chromen-2-one] | < 0.1 µM | < 300 nM | **** (fold increase between >1.5 and ≤1.65) | –
11 | Cc1cn2cc(-c3cc4ccc(N5CCN[C@H](C)C5)cc4oc3=O)nc2c(C)n1 [Cpd 536, 3-(6,8-dimethylimidazo[1,2-a]pyrazin-2-yl)-7-[(3R)-3-methylpiperazin-1-yl]-2H-chromen-2-one] | < 0.1 µM | < 300 nM | ***** (fold increase >1.65) | –
12 | Cc1cn2cc(-c3cc4ccc(N5CCC(C#N)CC5)cc4oc3=O)nc2c(C)n1 [Compound 974, 1-[3-(6,8-dimethylimidazo[1,2-a]pyrazin-2-yl)-2-oxo-2H-chromen-7-yl]piperidine-4-carbonitrile] | 3 to 30 µM | – | ** (fold increase between >1.2 and ≤1.35) | –
13 | Cc1cn2cc(-c3cc4ccc(N5CCN[C@H](C)C5)cc4oc3=O)nc2cn1 [Compound 570, 3-(6-methylimidazo[1,2-a]pyrazin-2-yl)-7-[(3R)-3-methylpiperazin-1-yl]-2H-chromen-2-one] | < 0.1 µM | < 300 nM | ***** (fold increase >1.65) | –
14 | Cc1cn2cc(-c3cc4ccc(N5CCN(C(C)C)[C@H](C)C5)cc4oc3=O)cc2c(C)n1 [Compound 813, 3-(1,3-dimethylpyrrolo[1,2-a]pyrazin-7-yl)-7-[(3R)-3-methyl-4-(propan-2-yl)piperazin-1-yl]-2H-chromen-2-one] | < 0.1 µM | < 300 nM | **** (fold increase between >1.5 and ≤1.65) | –
15 | Cc1cn2cc(-c3cc4ccc(N5CCN(CCO)[C@@H](C)C5)cc4oc3=O)nc2c(C)n1 [Compound 888, 3-(6,8-dimethylimidazo[1,2-a]pyrazin-2-yl)-7-[(3S)-4-(2-hydroxyethyl)-3-methylpiperazin-1-yl]-2H-chromen-2-one] | < 0.1 µM | < 300 nM | ***** (fold increase >1.65) | –
16 | Cc1cn2cc(-c3cc4ccc(OCCN5CC[C@H](O)C5)cc4oc3=O)nc2c(C)n1 [Compound 954, 3-(6,8-dimethylimidazo[1,2-a]pyrazin-2-yl)-7-{2-[(3S)-3-hydroxypyrrolidin-1-yl]ethoxy}-2H-chromen-2-one] | < 0.1 µM | < 300 nM | ***** (fold increase >1.65) | –
17 | Cc1cn2cc(-c3cc4ccc(N5CC6CC5CN6)cc4oc3=O)cc2cn1 (centres unmarked) [Compound 744, 7-(2,5-diazabicyclo[2.2.1]hept-2-yl)-3-(3-methylpyrrolo[1,2-a]pyrazin-7-yl)-2H-chromen-2-one] | < 0.1 µM | – | ** (fold increase between >1.2 and ≤1.35) | –
18 | O=c1oc2cc(N3CCNCC3)ccc2cc1-c1cn2ccc(C(F)(F)F)cc2n1 [Compound 114, 7-(piperazin-1-yl)-3-[7-(trifluoromethyl)imidazo[1,2-a]pyridin-2-yl]-2H-chromen-2-one] | < 0.1 µM | – | ** (fold increase between >1.2 and ≤1.35) | –
19 | Cc1cn2cc(-c3cc4ccc(CCNCCO)cc4oc3=O)nc2c(C)n1 [Compound 870, 3-(6,8-dimethylimidazo[1,2-a]pyrazin-2-yl)-7-{2-[(2-hydroxyethyl)amino]ethyl}-2H-chromen-2-one] | < 0.1 µM | < 300 nM | **** (fold increase between >1.5 and ≤1.65) | –
20 | Cc1cc2cc(-c3cc4ccc(N5CCN(C6CC6)CC5)cc4oc3=O)oc2c(C)n1 [Compound 798, 7-(4-cyclopropylpiperazin-1-yl)-3-(5,7-dimethylfuro[2,3-c]pyridin-2-yl)-2H-chromen-2-one] | 0.1 to 0.3 µM | 300 to 1000 nM | **** (fold increase between >1.5 and ≤1.65) | –
21 | Cc1cn2cc(-c3cc4ccc(O[C@@H]5CCNC5)cc4oc3=O)nc2c(C)n1 [Compound 601, 3-(6,8-dimethylimidazo[1,2-a]pyrazin-2-yl)-7-[(3R)-pyrrolidin-3-yloxy]-2H-chromen-2-one] | < 0.1 µM | < 300 nM | ***** (fold increase >1.65) | –
22 | O=C(O)C(F)(F)F.O=c1oc2cc(N3CCNCC3)ccc2cc1-c1nc2c(C(F)(F)F)cccc2o1 [Compound 1, 7-(piperazin-1-yl)-3[4-(trifluoromethyl)-1,3-benzoxazol-2-yl]-2H-chromen-2-one trifluoroacetate] | 0.3 to 1 µM | – | * (maximum fold increase of ≤1.2) | –
23 | Cc1cccn2cc(-c3cc4ccc(N5C[C@H](C)NC[C@H]5C)cc4oc3=O)nc12 [Compound 166, 7-[(2R,5S)-2,5-dimethylpiperazin-1-yl]-3-(8-methylimidazo[1,2-a]pyridin-2-yl)-2H-chromen-2-one] | 1 to 3 µM | – | ** (fold increase between >1.2 and ≤1.35) | –
24 | Cc1cn2cc(-c3cc4ccc(N5CCN(C)CC5)cc4oc3=O)nc2cn1 [Compound 568, 3-(6-methylimidazo[1,2-a]pyrazin-2-yl)-7-(4-methylpiperazin-1-yl)-2H-chromen-2-one] | < 0.1 µM | < 300 nM | ***** (fold increase >1.65) | –
25 | COCCNCCOc1ccc2cc(-c3cn4cc(C)nc(C)c4n3)c(=O)oc2c1 [Compound 960, 3-(6,8-dimethylimidazo[1,2-a]pyrazin-2-yl)-7-{2-[(2-methoxyethyl)amino]ethoxy}-2H-chromen-2-one] | < 0.1 µM | 1000 to 3000 nM | *** (fold increase between >1.35 and ≤1.5) | –
